Experimental data taken from US12521409B2, “Cognition” (priority 2023, dated 2026).
Entries after “also recorded” stand apart in the source; their conditions may differ.

Experiments:
[1] = test system: TG2576 mice; assay: Morris water maze, spatial memory in TG2576 mice (Example 3B); assay type: in vivo, mouse; settings: TAG diet
Source text: The Morris water maze (MWM) has been used to measure spatial memory deficit in TG2576 mice. Mice are placed in a tub of water and containing a submerged platform. The amount of time required for a mouse to swim to the platform is referred to as the maze “escape time”. There are two testing stages in the water maze: 1. VISIBLE STAGE, in which the position of the platform is made visible by a marker pole attached to the platform, and 2. HIDDEN STAGE where the marker pole is removed and the water made opaque by the addition of white paint. Compared to wild type siblings, older TG2576 mice show increased latency to escape time.
The maze consisted of a 715 mm diameter tub filled to a depth of 70 mm. For VISIBLE STAGE testing, mice were placed in the water maze and the time they took to reach the platform was recorded with a stop watch. This testing was carried out 8 times per day for 3 days, during which the platform was moved to various positions around the maze. The walls of the maze were inscribed with 4 distinct shapes that were provided as spatial cues for learning. The HIDDEN STAGE testing was carried out for 7 days, 4 times per day. The position of the platform was fixed, but mice were placed in the maze at different positions for each test.
[…].
As subjects learned to navigate and find the hidden platform, their escape time was reduced. […]

[2] = test system: TG2576 mice; assay: UDP N-acetyl glucosamine in brain tissue of TG2576 mice on TAG-supplemented diet, LC-MS/MS (Example 2B); assay type: in vivo, mouse
Experimental: After 6 weeks brains were excised and bisected in the sagittal plane. The hemi-brains were stored frozen (−80° C.) then thawed, weighed and homogenized in 10 volumes of MeOH/MeCN/H2O (50%/30%/20%, v/v/v). Homogenates were centrifuged at 5000 rpm for 30 min. The supernatant was passed through 1 kDa MW centrifugal filters then evaporated and resuspended in the HPLC mobile phase. UDP N-acetyl glucosamine was run on a mixed-mode hydrophilic HPLC column (150 mm×4.6 mm id, Primesep N, by SIELC), with guard under a linear gradient of 80% acetonitrile and 10 mM ammonium formate pH 4.3 to 10% MeCN and 10 mM ammonium formate over 9 min, then return to starting conditions over 1 min. UDP N-acetyl glucosamine in brain extracts was quantified against commercial standard UDP N-acetyl glucosamine detected by mass spectrometry (MS-MS) in negative ion mode, scanning for m/z 606 and identification of major collision fragments m/z 385 and 403. UDP levels were corrected for brain mass. The effect of diet was calculated using 1-tailed t-test.

[3] = test system: TG2576 mice; assay: Plasma glutamate and glutamine by LC-MS in TG2576 mice on TAG-supplemented diet (Example 1B); settings: mouse, in vivo

Q: Which results are given for tetra-acetyl glucosamine [TAG]?
A: Effect on latency to escape time / spatial working memory in Morris water maze (in words) ([1]; after 7 days): decreased; also recorded: significantly improved; Mean escape time ± SE ([1]; water maze after 7 days, n = 8, in s (unit assumed)): 9.31 ± 0.80; UDP N-acetyl glucosamine in brain ([2]; TG2576 mice, 0.45% (w/w) TAG diet for 6 weeks, n = 5, p=0.037 vs control diet): 28.3 ± 2.13 ng/mg brain fwt; Increase in levels of UDP N-acetyl glucosamine in brain vs control diet ([2]; TG2576 mice, 6 weeks of TAG-supplemented diet): 40%; UDP N-acetyl glucosamine in brain tissue compared to control (in words) ([2]; mice models of AD fed a diet supplemented with TAG): increased; Plasma concentration of glutamate [3]: 1.05 ± 0.094 RU/ml; Plasma concentration of glutamine [3]: 6.77 ± 1.05 RU/ml; Plasma glutamate level compared to control mice (in words) [3]: significantly lower; also recorded: reduced; Plasma glutamine level compared to control mice (in words) [3]: trend of increased
